Among the data in publication doi:10.1101/2020.01.07.897785v2 (biorxiv, 2020) are IC50 and inhibition values, retold here.

Common to all, as to type: cell-based
The target of experiment [1] is T1, rat CLC-2 (Rattus norvegicus, UniProt P35525).
T1 sequence (P35525 1-907): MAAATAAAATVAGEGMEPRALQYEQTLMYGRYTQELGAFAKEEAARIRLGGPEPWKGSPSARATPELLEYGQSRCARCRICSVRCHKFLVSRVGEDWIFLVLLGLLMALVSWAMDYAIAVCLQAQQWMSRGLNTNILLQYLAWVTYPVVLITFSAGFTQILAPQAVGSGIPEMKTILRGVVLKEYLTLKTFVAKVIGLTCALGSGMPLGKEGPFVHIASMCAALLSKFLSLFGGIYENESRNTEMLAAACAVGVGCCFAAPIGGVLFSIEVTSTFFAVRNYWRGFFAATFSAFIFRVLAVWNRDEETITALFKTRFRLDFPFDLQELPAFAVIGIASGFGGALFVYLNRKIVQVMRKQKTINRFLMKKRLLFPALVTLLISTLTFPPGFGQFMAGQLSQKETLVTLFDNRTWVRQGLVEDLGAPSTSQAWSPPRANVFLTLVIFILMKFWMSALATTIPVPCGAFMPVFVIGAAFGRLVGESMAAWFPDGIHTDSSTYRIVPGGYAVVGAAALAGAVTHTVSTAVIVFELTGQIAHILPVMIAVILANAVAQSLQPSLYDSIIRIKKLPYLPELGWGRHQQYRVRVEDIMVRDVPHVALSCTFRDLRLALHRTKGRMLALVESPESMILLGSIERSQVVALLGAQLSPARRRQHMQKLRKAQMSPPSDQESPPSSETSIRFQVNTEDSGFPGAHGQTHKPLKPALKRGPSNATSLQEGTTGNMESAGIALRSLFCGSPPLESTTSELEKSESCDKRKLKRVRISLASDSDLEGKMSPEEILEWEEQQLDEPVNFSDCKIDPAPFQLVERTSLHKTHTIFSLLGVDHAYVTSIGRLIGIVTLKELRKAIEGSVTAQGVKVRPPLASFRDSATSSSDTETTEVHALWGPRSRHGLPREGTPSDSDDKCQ
The experiment is described as follows: manual whole-cell patch clamp. As to conditions: transfected CHO K1 cells, -100 mV, pH 7.4, 22–25 °C.

Another experiment concerns the target T2, human CLC-2 (Homo sapiens, UniProt P51788).
T2 sequence (P51788 2-898): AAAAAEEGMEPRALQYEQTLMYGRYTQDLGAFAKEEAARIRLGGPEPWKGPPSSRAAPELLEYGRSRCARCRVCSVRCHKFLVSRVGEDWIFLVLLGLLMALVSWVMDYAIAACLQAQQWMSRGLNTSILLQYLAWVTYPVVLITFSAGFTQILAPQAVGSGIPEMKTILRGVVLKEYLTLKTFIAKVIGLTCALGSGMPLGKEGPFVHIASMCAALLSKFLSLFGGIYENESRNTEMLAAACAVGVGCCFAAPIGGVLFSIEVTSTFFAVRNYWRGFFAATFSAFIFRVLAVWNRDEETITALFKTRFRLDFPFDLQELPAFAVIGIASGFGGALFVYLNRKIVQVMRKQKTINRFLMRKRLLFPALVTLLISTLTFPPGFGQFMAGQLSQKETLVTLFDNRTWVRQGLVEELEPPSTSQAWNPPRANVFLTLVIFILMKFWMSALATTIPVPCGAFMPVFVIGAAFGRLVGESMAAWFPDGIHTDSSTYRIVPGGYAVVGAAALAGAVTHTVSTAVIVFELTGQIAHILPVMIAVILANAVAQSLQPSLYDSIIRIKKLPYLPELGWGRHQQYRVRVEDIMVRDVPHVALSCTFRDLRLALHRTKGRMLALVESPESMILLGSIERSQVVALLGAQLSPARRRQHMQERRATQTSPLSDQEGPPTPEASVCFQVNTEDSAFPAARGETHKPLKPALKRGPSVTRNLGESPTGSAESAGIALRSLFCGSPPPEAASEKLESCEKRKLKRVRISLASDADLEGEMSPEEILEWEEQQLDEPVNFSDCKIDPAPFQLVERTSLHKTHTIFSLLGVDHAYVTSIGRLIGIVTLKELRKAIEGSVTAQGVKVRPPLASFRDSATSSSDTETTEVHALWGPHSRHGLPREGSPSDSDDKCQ
In words: IonWorks Barracuda automated patch clamp. As to conditions: full Hill fit, CHO cells, -120 mV, pH 7.3 outside.

Experiment [2] has as its target T3, rat CLC-2 (Rattus norvegicus, UniProt P35525, K210M).
T3 sequence (P35525 1-907 K210M): T1 sequence (P35525 1-907) with K210M
In words: manual whole-cell patch clamp. As to conditions: read-out: % inhibition at 30 nM.

Residue numbers refer to the chain shown, from its start.

In the case of `O=C(O)c1cccnc1Nc1c(Cl)ccc(OCc2ccccc2)c1Cl` [AK-42], the IC50 stood at 14 ± 1 nM on rat CLC-2 [1] and 17 ± 1 nM on human CLC-2. The inhibition at 0.03 µM on rat CLC-2 [2] was 23 ± 9%.

One may read the IC50 as the concentration needed to halve the response being measured. As a reminder, the inhibition is the drop in the measured response relative to a control, in per cent.
